Results reported in patent publication US20050107423A1, “Quinolone antibacterial agents” (priority 2003, published 2005).
≈ marks a conversion by molar mass, not a printed value.

How the values were obtained:
Test in all cases: Antibacterial assay, microtitration MIC (Test A)
Assay type in all cases: cell-based
E. coli EC-2549 = settings: strain EC-2549; for MIC: Escherichia coli, EC2549, Gram Negative Bacteria, read-out: Minimum Inhibitory Concentrations E. coli EC-2549
Experimental: (§1) The compounds of the present invention were tested against an assortment of Gram-negative and Gram-positive organisms using standard microtitration techniques (Cohen et. al., Antimicrob., 1985;28:766; Heifetz, et. al., Antimicrob., 1974;6:124). The results of the evaluation are shown in Tables 1A and B, wherein “-” means no data.

M. catarrhalis BC-3531 = settings: strain BC-3531; for MIC: Moraxella catarrhalis, BC3531, Gram Negative Bacteria, read-out: Minimum Inhibitory Concentrations M. catarrhalis BC-3531
Experimental: as §1

H. influenzae HI-3542 = settings: strain HI-3542; for MIC: Haemophilus influenzae, HI3542, Gram Negative Bacteria, read-out: Minimum Inhibitory Concentrations H. influenzae HI-3542
Experimental: as §1

E. faecalis MGH-2 = settings: Enterococcus faecalis, MGH2, Gram Positive Bacteria; strain MGH-2; read-out: Minimum Inhibitory Concentrations E. faecalis MGH-2
Experimental: as §1

S pyogenes C203 = settings: Gram Positive Bacteria; strain C203; read-out: Minimum Inhibitory Concentrations S pyogenes C203
Experimental: as §1

S. pneumo SV-1 = settings: Gram Positive Bacteria; strain SV-1; read-out: Minimum Inhibitory Concentrations S. pneumo SV-1
Experimental: as §1

Compound | MIC (E. coli EC-2549) [µg/mL] | MIC (M. catarrhalis BC-3531) [µg/mL] | MIC (H. influenzae HI-3542) [µg/mL] | further results
Cc1c(N2CCC(C(C)O)C2)c(F)cc2c(=O)c(C(=O)O)cn(C3CC3)c12 (stereo not drawn) [drawing 317] | – | – | – | Minimum Inhibitory Concentrations E. coli EC-2549 (E. coli EC-2549; Gram Negative Bacteria): 0.06 µg/mL; Minimum Inhibitory Concentrations M. catarrhalis BC-3531 (M. catarrhalis BC-3531; Gram Negative Bacteria): 0.008 µg/mL; Minimum Inhibitory Concentrations H. influenzae HI-3542 (H. influenzae HI-3542; Gram Negative Bacteria): 0.004 µg/mL
Cc1c(N2CCC(C(O)(CO)C(F)(F)F)C2)c(F)cc2c(=O)c(C(=O)O)cn(C3CC3)c12 (stereo not drawn) [drawing 338] | 0.5 (≈ 1.09 µM) | 0.06 (≈ 0.131 µM) | 0.06 (≈ 0.131 µM) | –
O=C(O)c1cn(C2CC2)c2nc(N3CCC(C(O)C(F)F)C3)c(F)cc2c1=O (stereo not drawn) [drawing 314] | 0.125 (≈ 0.315 µM) | 0.016 (≈ 0.0403 µM) | 0.008 (≈ 0.0201 µM) | –
Nc1nc(-n2cc(C(=O)O)c(=O)c3cc(F)c(N4CCC(C(O)C(F)F)C4)c(Cl)c32)c(F)cc1F (stereo not drawn) [drawing 351] | – | – | – | MIC (E. faecalis MGH-2): 0.25 µg/mL (≈ 0.482 µM); MIC (S pyogenes C203): 0.125 µg/mL (≈ 0.241 µM); MIC (S. pneumo SV-1): 0.06 µg/mL (≈ 0.116 µM)
COc1c(N2CCC(C(O)C(F)(F)F)C2)c(F)cc2c(=O)c(C(=O)O)cn(C3CC3)c12 (stereo not drawn) [drawing 362] | – | – | – | MIC (E. faecalis MGH-2): 0.06 µg/mL (≈ 0.135 µM); MIC (S pyogenes C203): 0.125 µg/mL (≈ 0.281 µM); MIC (S. pneumo SV-1): 0.06 µg/mL (≈ 0.135 µM)
COc1c(N2C[C@@H]3CC[C@@H](O)[C@@H]3C2)c(F)cc2c(=O)c(C(=O)O)cn(C3CC3)c12 [drawing 454] | – | – | – | MIC (E. faecalis MGH-2): 0.125 µg/mL (≈ 0.311 µM); MIC (S pyogenes C203): 0.125 µg/mL (≈ 0.311 µM); MIC (S. pneumo SV-1): 0.125 µg/mL (≈ 0.311 µM)
O=C(O)c1cn(C2CC2)c2nc(N3CCC(C(O)C(F)(F)F)C3)c(F)cc2c1=O (stereo not drawn) [drawing 334] | 0.125 (≈ 0.301 µM) | 0.016 (≈ 0.0385 µM) | 0.016 (≈ 0.0385 µM) | –
Cc1c(N2CCC(C(O)C(F)(F)F)C2)c(F)cc2c(=O)c(C(=O)O)cn(C3CC3)c12 (stereo not drawn) [drawing 329] | 0.5 (≈ 1.17 µM) | 0.03 (≈ 0.07 µM) | 0.06 (≈ 0.14 µM) | –
Cc1c(N2C[C@@H](CO)[C@@H](CO)C2)c(F)cc2c(=O)c(C(=O)O)cn(C3CC3)c12 [drawing 386] | 0.06 (≈ 0.154 µM) | 0.015 (≈ 0.0384 µM) | 0.001 (≈ 0.00256 µM) | –
COc1c(N2CCC(C(C)O)C2)c(F)cc2c(=O)c(C(=O)O)cn(C3CC3)c12 (stereo not drawn) [drawing 345] | – | – | – | MIC (E. faecalis MGH-2): 0.125 µg/mL (≈ 0.32 µM); MIC (S pyogenes C203): 0.125 µg/mL (≈ 0.32 µM); MIC (S. pneumo SV-1): 0.06 µg/mL (≈ 0.154 µM)
Cc1c(N2CC(C(C)O)C(C)(C)C2)c(F)cc2c(=O)c(C(=O)O)cn(C3CC3)c12 (stereo not drawn) [drawing 423] | 0.25 (≈ 0.621 µM) | 0.015 (≈ 0.0373 µM) | 0.06 (≈ 0.149 µM) | –
Cc1c(N2CCC(C(O)C(F)F)C2)c(F)cc2c(=O)c(C(=O)O)cn(C3CC3)c12 (stereo not drawn) [drawing 310] | 0.06 (≈ 0.146 µM) | 0.008 (≈ 0.0195 µM) | 0.008 (≈ 0.0195 µM) | –
Nc1nc(-n2cc(C(=O)O)c(=O)c3cc(F)c(N4CCC(C(O)CO)C4)cc32)c(F)cc1F (stereo not drawn) [drawing 325] | 0.06 (≈ 0.129 µM) | 0.015 (≈ 0.0323 µM) | 0.004 (≈ 0.00861 µM) | –
Cc1c(N2CCC(CCO)C2)c(F)cc2c(=O)c(C(=O)O)cn(C3CC3)c12 (stereo not drawn) [drawing 308] | 0.06 (≈ 0.16 µM) | 0.015 (≈ 0.0401 µM) | 0.03 (≈ 0.0801 µM) | –
Nc1nc(-n2cc(C(=O)O)c(=O)c3cc(F)c(N4CCC(C(O)C(F)(F)F)C4)c(Cl)c32)c(F)cc1F (stereo not drawn) [drawing 333] | 1 (≈ 1.86 µM) | 0.125 (≈ 0.233 µM) | 0.06 (≈ 0.112 µM) | –
O=C(O)c1cn(C2CC2)c2nc(N3CCC(C(O)C(F)(F)F)C3)c(F)cc2c1=O (stereo not drawn) [drawing 367] | – | – | – | MIC (E. faecalis MGH-2): 0.25 µg/mL (≈ 0.602 µM); MIC (S pyogenes C203): 1 µg/mL (≈ 2.41 µM); MIC (S. pneumo SV-1): 0.5 µg/mL (≈ 1.2 µM)
O=C(O)c1cn(C2CC2)c2c(OC(F)F)c(N3C[C@@H](CCO)[C@@H](CCO)C3)c(F)cc2c1=O [drawing 397] | 1 (≈ 2.13 µM) | 0.125 (≈ 0.266 µM) | 0.06 (≈ 0.128 µM) | –

More lines, main results first:

MIC (E. coli EC-2549) [µg/mL] | MIC (M. catarrhalis BC-3531) [µg/mL] | MIC (H. influenzae HI-3542) [µg/mL] | Compound | further results
0.25 (≈ 0.615 µM) | 0.06 (≈ 0.148 µM) | 0.008 (≈ 0.0197 µM) | COc1c(N2C[C@H](CO)[C@@H](CO)C2)c(F)cc2c(=O)c(C(=O)O)cn(C3CC3)c12 [drawing 385] | –
1 (≈ 2.3 µM) | 0.125 (≈ 0.288 µM) | 0.06 (≈ 0.138 µM) | COc1c(N2C[C@@H](CCO)[C@@H](CCO)C2)c(F)cc2c(=O)c(C(=O)O)cn(C3CC3)c12 [drawing 396] | –
0.25 (≈ 0.597 µM) | 0.06 (≈ 0.143 µM) | 0.015 (≈ 0.0358 µM) | COc1c(N2C[C@@H]3C[C@@H](O)[C@@H](O)[C@@H]3C2)c(F)cc2c(=O)c(C(=O)O)cn(C3CC3)c12 | –
0.03 (≈ 0.0738 µM) | 0.04 (≈ 0.0984 µM) | 0.015 (≈ 0.0369 µM) | COc1c(N2CCC(C(O)CO)C2)c(F)cc2c(=O)c(C(=O)O)cn(C3CC3)c12 (stereo not drawn) [drawing 322] | –
0.06 (≈ 0.149 µM) | 0.008 (≈ 0.0199 µM) | 0.008 (≈ 0.0199 µM) | COc1c(N2CC(CO)C3(CC3)C2)c(F)cc2c(=O)c(C(=O)O)cn(C3CC3)c12 (stereo not drawn) [drawing 420] | –
0.125 (≈ 0.3 µM) | 0.03 (≈ 0.072 µM) | 0.015 (≈ 0.036 µM) | Cc1c(N2C[C@@H]3CC[C@@](O)(CO)[C@@H]3C2)c(F)cc2c(=O)c(C(=O)O)cn(C3CC3)c12 [drawing 450] | –
